# Experimental data from the supplement of paper PMC10307832.
# Experiments:
# Experiment in all cases: relative viability (nuclei count vs DMSO), 5 days (fraction); higher = more cells survive
# [1] = compound: CN1C=C(C2=CC=CC=C21)/C=C\3/C4=C(C=CC=N4)NC3=O + N=C(N)NC(=N)NCCc1ccccc1 [Phenformin] (partner 250 µM)
# Method in brief: (§1)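 Relative viability is defined as nuclei in treated wells over nuclei in vehicle wells. Duplicate plates were run and medians reported. Lung cancer cell lines in 1536-well plates were dosed by pin tool one day after seeding, with one drug or with a fixed anchor-drug dose plus five library-drug doses (not always all listed) in √10 steps, and nuclei were counted after 5 days.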
# [2] = compound: CN1C=C(C2=CC=CC=C21)/C=C\3/C4=C(C=CC=N4)NC3=O + CCNC(=O)c1noc(-c2cc(C(C)C)c(O)cc2O)c1-c1ccc(CN2CCOCC2)cc1 [Luminespib] (partner 0.01 µM)
# Method in brief: as §1
# [3] = compound: CC(=O)Nc1cccc(-n2c(=O)n(C3CC3)c(=O)c3c(Nc4ccc(I)cc4F)n(C)c(=O)c(C)c32)c1 [Trametinib] + O=C(CCCCCCC(=O)Nc1ccccc1)NO [Vorinostat] (partner 1 µM)
# Method in brief: as §1
# [4] = compound: CC(=O)Nc1cccc(-n2c(=O)n(C3CC3)c(=O)c3c(Nc4ccc(I)cc4F)n(C)c(=O)c(C)c32)c1 [Trametinib] + N=C(N)NC(=N)NCCc1ccccc1 [Phenformin] (partner 250 µM)
# Method in brief: as §1
Cell Line,relative viability ([1]; first compound 0.02 µM),relative viability ([1]; first compound 0.06325 µM),relative viability ([1]; first compound 0.2 µM),relative viability ([1]; first compound 0.6325 µM),relative viability ([1]; first compound 2 µM),relative viability ([2]; first compound 0.02 µM),relative viability ([2]; first compound 0.06325 µM),relative viability ([2]; first compound 0.2 µM),relative viability ([2]; first compound 0.6325 µM),relative viability ([2]; first compound 2 µM),relative viability ([3]; first compound 0.0025 µM),relative viability ([3]; first compound 0.007906 µM),relative viability ([3]; first compound 0.025 µM),relative viability ([3]; first compound 0.07906 µM),relative viability ([3]; first compound 0.25 µM),relative viability ([4]; first compound 0.0025 µM),relative viability ([4]; first compound 0.007906 µM),relative viability ([4]; first compound 0.025 µM),relative viability ([4]; first compound 0.07906 µM),relative viability ([4]; first compound 0.25 µM)
NCI-H358,0.301,0.316,0.311,0.4,0.4,0.397,0.377,0.403,0.309,0.407,0.367,0.27,0.266,0.205,0.154,0.201,0.189,0.146,0.124,0.121
NCI-H2126,0.506,0.508,0.507,0.519,0.505,1,0.875,0.852,0.907,0.932,0.701,0.514,0.353,0.6,0.446,0.501,0.464,0.419,0.481,0.466
ChaGo-K-1,0.419,0.492,0.41,0.522,0.471,0.54,0.56,0.522,0.482,0.59,0.659,0.623,0.685,0.731,0.418,0.413,0.444,0.492,0.414,0.317
NCI-H1437,0.307,0.325,0.231,0.28,0.267,1.14,1.08,1.22,1.25,1.24,0.813,0.642,0.516,0.447,0.377,0.258,0.205,0.23,0.201,0.206
SK-LU-1,0.409,0.41,0.444,0.524,0.646,0.201,0.185,0.191,0.184,0.2,0.753,0.748,0.657,0.52,0.381,0.482,0.501,0.288,0.246,0.164
NCI-H838,0.5,0.533,0.519,0.569,0.535,0.314,0.336,0.345,0.269,0.325,0.682,0.591,0.598,0.631,0.568,0.515,0.509,0.281,0.369,0.351
NCI-H1755,0.532,0.537,0.523,0.263,0.571,0.376,0.369,0.541,0.37,0.387,0.829,0.698,0.686,0.735,0.747,0.593,0.587,0.608,0.594,0.512
NCI-H2228,0.213,0.273,–,–,0.304,0.214,0.0886,–,–,0.132,0.673,0.87,0.766,0.426,0.309,0.319,0.225,0.152,0.161,0.138
NCI-H1915,0.331,0.361,0.365,0.347,0.36,0.728,0.816,0.894,0.431,0.954,0.558,0.575,0.466,0.368,0.289,0.38,0.306,0.249,0.304,0.141
NCI-H2347,–,0.374,0.297,0.318,0.46,–,0.288,0.352,0.339,0.569,0.467,0.358,0.289,0.329,0.358,0.225,0.125,0.233,0.164,0.143
HARA,0.407,0.412,–,0.34,0.431,0.347,0.951,–,0.558,0.676,0.387,0.403,0.298,0.251,0.154,0.399,0.426,0.386,0.373,0.214
NCI-H2085,0.74,0.656,0.647,0.778,0.72,0.454,0.412,0.436,0.411,0.485,0.695,0.718,0.501,0.609,0.563,0.588,0.509,0.332,0.464,0.25
NCI-H650,0.474,0.481,–,0.421,0.404,0.573,0.775,–,0.757,0.889,0.528,0.585,0.392,0.569,0.667,0.532,0.52,0.501,0.426,0.403
NCI-H727,0.414,0.448,0.442,0.586,0.528,0.365,0.329,0.394,0.4,0.271,0.961,0.851,0.424,0.387,0.382,0.32,0.359,0.406,0.257,0.264
NCI-H1993,0.544,0.432,0.431,0.55,0.509,0.828,0.686,0.813,0.67,0.369,0.681,0.553,0.339,0.576,0.304,0.538,0.536,0.558,0.554,0.56
EMC-BAC-2,0.538,0.525,0.522,0.475,0.533,1.19,1.18,1.29,1.17,1.19,0.742,0.602,0.448,–,0.326,0.582,0.565,0.443,0.475,0.31
NCI-H2087,0.488,0.431,0.387,0.453,0.369,0.173,0.175,0.197,0.151,0.154,0.595,0.368,0.463,0.237,0.12,0.294,0.258,0.146,0.153,0.111
NCI-H441,0.795,0.754,0.804,0.88,0.772,0.341,0.341,0.296,0.513,0.36,0.819,0.797,0.722,0.749,0.608,0.744,0.836,0.501,0.561,0.252
LXF-289,0.478,0.515,0.467,0.551,0.522,0.668,0.662,0.741,0.69,0.785,0.711,0.587,0.538,0.529,0.55,0.503,0.451,0.444,0.422,0.263
NCI-H661,0.261,0.277,0.266,0.276,0.264,1.06,0.875,0.946,0.973,0.917,0.742,0.753,0.782,0.782,0.724,0.298,0.289,0.257,0.28,0.246
PC-3 [JPC-3],0.472,0.44,0.434,0.425,0.497,0.628,0.595,0.647,0.682,0.839,0.82,0.722,0.557,–,0.53,0.46,0.463,0.427,0.405,0.373
NCI-H522,0.579,0.672,0.703,0.58,0.644,1.32,0.937,1.02,1.18,1.12,0.823,0.798,0.836,0.763,0.671,0.575,0.657,0.506,0.574,0.434
NCI-H1651,0.377,0.344,0.305,0.327,0.397,0.953,0.772,1.02,1.13,1.02,0.546,0.546,0.466,0.505,0.505,0.26,0.293,0.296,0.288,0.182
NCI-H1355,0.439,0.388,0.398,0.358,0.434,0.65,0.623,0.669,0.533,0.629,0.605,0.524,0.341,0.377,0.291,0.394,0.415,0.322,0.382,0.308
LC-2-ad,0.595,0.546,0.414,0.537,0.549,1.05,0.885,1.05,1.22,1.07,0.648,0.665,0.663,0.547,0.472,0.625,0.543,0.5,0.427,0.338
NCI-H1944,0.21,0.181,–,0.181,0.167,0.706,0.742,–,0.767,0.897,0.556,0.387,0.382,0.348,0.28,0.187,0.159,0.152,0.148,0.137
HCC-827,0.405,0.413,–,0.465,0.388,0.589,0.52,–,0.59,0.756,0.903,0.876,0.71,0.677,0.502,0.374,0.373,0.334,0.313,0.313
